Measured values taken from patent publication US6248718A, “Lesion-directed dry dosage forms of antibacterial agents for the treatment of acute mucosal infections of the oral cavity” (priority 1999, dated 2001).
Values joined by “and” are separate entries in the source; they are usually repeats but may differ in a detail not shown here. Equal values may be shown once. “Also recorded” adds a separate entry of the source.

Test system: bacteria in saliva in the vicinity of the canker ulcer
Experiment: Bacterial inhibition in saliva of canker sore patients in vivo (Example VI)
Method: Six (6) adult, otherwise healthy patients suffering from recurrent minor canker sores were selected for this study from July 10 to Nov. 12, 1998. The drug substance used for this study was crystalline penicillin G potassium salt, U.S.P. grade, purchased from Sigma Chemical Co., St. Louis, Mo. 63178 (Lot No. 57H1195).
On the first or the second day after the patients noticed the formation of the canker ulcers, 50 mg of penicillin G potassium was administered topically with a spatula or the handle of a teaspoon as dry powder directly over the canker ulcers, four times a day, i.e. after breakfast, after lunch, after supper and before bed time. The patients were advised to retain the antibiotic powder and its concentrated solution in a small pocket of saliva at the site of the ulcer and to avoid its excessive dilution by saliva from other parts of the oral cavity for one hour after each application of the antibiotic powder. No food or drink was allowed during this one-hour period.
Samples of 0.1 ml of saliva at the site in the vicinity of the canker ulcer were pipetted from the mouth immediately before instituting the first penicillin G potassium application and about 60-70 minutes after the first antibiotic application. Each sample was spread on the surface of a 10-cm blood agar Petri dish with a sterile plastic loop. The inoculated plates were incubated aerobically at 37° C. for 18 hours as described above. The total numbers of bacterial colonies on each plate were estimated. The dominating species of the microorganisms were identified according to the approved protocols routinely used in a clinical microbiology laboratory. The results are tabulated as follows
On day 2, about 48 hours after the medication was initiated, the patients collected an early morning sample of saliva immediately after getting up and submitted it to the laboratory for culture. While in the laboratory, a second sample of the residual exudate covering the ulcer was taken from the patient for a post-treatment follow-up microscopy after Congo red negative staining.
On day 6, i.e. two days after the last dose of medication, the patients were instructed to collect a sample of saliva in a sterile test tube upon waking up in the morning before brushing their teeth. The saliva was brought to the laboratory. Aliquot of 0.1 ml of each saliva sample was pipetted and inoculated on the surface of a blood agar plate and incubated aerobically as described previously. After 18 hours of incubation, there were more 3,000 colonies growing on each blood agar plate. The overwhelming majority of the colonies were those of Neisseriae and non-β-hemolytic streptococci, similar to those observed in FIG. 1.

## CC1(C)S[C@@H]2[C@H](NC(=O)Cc3ccccc3)C(=O)N2[C@H]1C(=O)O [penicillin G potassium]
50 mg
  duration of inhibitory effect on oral flora: not long-lasting
50 mg four times a day, intermittent
  alteration of normal oral flora: not permanently altered; also recorded: did not seem to alter the dominant microbial components of the normal flora
50 mg powder, about 60-70 minutes, 0.1 ml saliva, per patient, Y = yeast
  Colonies after Treatment: 0 and 2 and Two
50 mg powder, about one hour
  inhibition of bacteria in saliva covering the ulcer: totally destroyed or inhibited; also recorded: intermittent total inhibition of bacterial growth in the saliva
Day 2, about 48 hours after start of medication, 0.1 ml
  bacterial colonies in early morning saliva: more than 3,000 bacterial colonies
Day 6, two days after last dose, 0.1 ml
  bacterial colonies in morning saliva: > 3,000 colonies
